Columns and labels:
BoNT/A LC = conditions: cited from earlier work
BoNT/A LC (1-425aa) [1] = biological target: T1, BoNT/A LC (1-425aa) (Clostridium botulinum, UniProt P0DPI0); assay: biochemical
BoNT/A LC (1-425aa) [2] = biological target: T1, BoNT/A LC (1-425aa); assay type: biochemical

T1 sequence (P0DPI0 1-425 limits assumed): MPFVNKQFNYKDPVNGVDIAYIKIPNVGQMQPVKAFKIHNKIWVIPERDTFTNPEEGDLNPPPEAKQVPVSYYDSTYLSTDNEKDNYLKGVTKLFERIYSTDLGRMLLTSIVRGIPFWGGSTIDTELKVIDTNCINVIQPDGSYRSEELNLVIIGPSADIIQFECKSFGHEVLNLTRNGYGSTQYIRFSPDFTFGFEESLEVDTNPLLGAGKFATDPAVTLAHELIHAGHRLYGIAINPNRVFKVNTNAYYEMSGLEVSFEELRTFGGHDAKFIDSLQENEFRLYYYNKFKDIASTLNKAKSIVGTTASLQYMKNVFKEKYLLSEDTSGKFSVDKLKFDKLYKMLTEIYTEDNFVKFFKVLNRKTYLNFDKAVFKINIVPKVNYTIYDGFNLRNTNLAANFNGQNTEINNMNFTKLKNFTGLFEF

SMILES | Ki (BoNT/A LC (1-425aa) [1]) [nM] | fold improved potency (lower Ki) than parent lead 3a (BoNT/A LC (1-425aa) [1]) [fold] | fold lower IC50 value than parent 3a (BoNT/A LC (1-425aa) [2]) | inhibitory potency against BoNT/A LC relative to parent 3a (BoNT/A LC (1-425aa) [2]) | also measured
O=C(C[C@@H](CCO)c1ccc(Cl)cc1Cl)NO [XI] | – | – | – | – | fold lower inhibition constant than the parent X (BoNT/A LC): ~2 fold
O=C(CC12CC3CC(C1)CC(c1ccc(Br)cc1)(C3)C2)NO [Compound 3p] | ~30 | 17 | ~ 30 fold | – | –
O=C(CC12CC3CC(CC(Br)(C3)C1)C2)NO [Compound 3g] | – | – | – | comparable with the lead molecule | –
O=C(CC12CC3CC(C1)CC(C(=O)O)(C3)C2)NO [Compound 3h] | – | – | – | no activity | –
O=C(CC12CC3CC(C1)CC(c1ccc(Cl)cc1)(C3)C2)NO [Compound 3o] | ~30 | 17 | ~ 30 fold | – | –
O=C(CC12CC3CC(CC(Cl)(C3)C1)C2)NO [Compound 3f] | – | – | – | comparable with the lead molecule | –

Reference: publication PMC3574188 (Bioorganic & medicinal chemistry, 2012)
